The values that follow come from BindingDB's records for doi:10.7270/Q2251GJ9 (The Scripps Research Institute Molecular Screening Center, 2007).

Each structure is given as a SMILES string.

By EC50 is commonly meant the concentration needed to bring the measured effect to its halfway point. A high value points to weaker potency.

The first assay deals with Sphingosine 1-phosphate receptor 1 (Homo sapiens, UniProt P21453). Briefly: S1P1 receptor agonists, dose response, cell-based, agonist mode, 60K MLSMR set (AID 468).
Sphingosine 1-phosphate receptor 1, sequence (P21453 whole entry): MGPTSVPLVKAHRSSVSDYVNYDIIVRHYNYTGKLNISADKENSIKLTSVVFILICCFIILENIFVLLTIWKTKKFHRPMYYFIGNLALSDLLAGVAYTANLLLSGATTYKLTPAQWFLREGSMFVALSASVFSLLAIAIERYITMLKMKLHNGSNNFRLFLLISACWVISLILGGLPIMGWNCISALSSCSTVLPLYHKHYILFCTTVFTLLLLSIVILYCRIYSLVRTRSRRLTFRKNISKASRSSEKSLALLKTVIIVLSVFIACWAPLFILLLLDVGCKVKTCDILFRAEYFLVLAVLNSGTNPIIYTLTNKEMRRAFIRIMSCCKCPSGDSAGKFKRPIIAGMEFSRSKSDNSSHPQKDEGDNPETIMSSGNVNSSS
Settings: not given
As for `Cc1cc(NC(=O)c2oc3ccccc3c2C)ccc1-n1cnnn1` [3-Methyl-benzofuran-2-carboxylic acid (3-methyl-4-tetrazol-1-yl-phenyl)-amide], the EC50 was 7.44 µM.

Regarding `CC(=O)Nc1ccccc1OCC(=O)c1cc(C)n(Cc2cccs2)c1C` [MLS000056239], the EC50 turned out to be 0.202 µM.

`COc1ccc(CCNc2ncnc3c2oc2ccccc23)cc1OC` [MLS000041708] had an EC50 of 0.537 µM.

With `COc1ccc(NC(=O)c2cnn3c(C(F)(F)F)cc(-c4ccco4)nc23)cc1OC` [MLS000109325], the EC50 is above 95 µM.

In the case of `COc1cc2c(cc1OC)C(C)N(C(=O)c1cc3ccccc3o1)CC2` (stereo not given) [1-benzofuran-2-yl-(6,7-dimethoxy-1-methyl-3,4-dihydro-1H-isoquinolin-2-yl)methanone], the EC50 is above 95 µM.

`Clc1ccc(OCCN2CCN(c3ncnc4sccc34)CC2)cc1` [4-[4-[2-(4-chloranylphenoxy)ethyl]piperazin-1-yl]thieno[2,3-d]pyrimidine] yielded an EC50 of 0.106 µM.

As to `CCOc1ccc(-c2nc(-c3ccccc3C)no2)cc1` [3-(o-tolyl)-5-p-phenetyl-1,2,4-oxadiazole], the EC50 came out at 1.87 µM.

As to `CC(C)Oc1cc(O)c2c(=O)c(-c3ccc(O)cc3)coc2c1` [3-(4-hydroxyphenyl)-5-oxidanyl-7-propan-2-yloxy-chromen-4-one], the EC50 is above 1 µM.

Take `O=S(=O)(Nc1ccc2c(c1)OCCO2)c1ccc2oc3ccccc3c2c1` [MLS000051884]: the EC50 is 7.68 µM.

In the case of `CCC(NC(=O)Nc1nnc(C(F)(F)F)s1)(C(F)(F)F)C(F)(F)F`, the EC50 is above 95 µM.

Take `CC(C)(C)SCCNS(=O)(=O)c1ccccc1` [MLS000112230]: the EC50 was above 95 µM.

On to `Cc1[nH]nc2c1C1(C(=O)N(Cc3ccc(Cl)cc3)c3ccccc31)C(C#N)C(=N)O2` (stereo not given) [6-amino-1'-[(4-chlorophenyl)methyl]-3-methyl-2'-oxo-5-spiro[2H-pyrano[2,3-c]pyrazole-4,3'-indole]carbonitrile], for which the response was half-maximal at 58 µM (EC50).

In turn, `CC(C)Cc1cc(C(=O)Nc2sc3c(c2C#N)CCCC3)no1` [MLS000116410] had an EC50 above 10 µM.

`c1ccc(N2CCN(Cc3ccnc4ccccc34)CC2)cc1` [4-[(4-phenyl-1-piperazinyl)methyl]quinoline]: the EC50 is 9.24 µM.

Compound `COc1ccccc1-c1nc(-c2cccc(C)c2)no1` [5-(2-methoxyphenyl)-3-(3-methylphenyl)-1,2,4-oxadiazole] returned an EC50 of 1.34 µM.

As to `NC(=O)c1ccc(OCC(F)(F)C(F)(F)C(F)(F)C(F)(F)C(F)(F)C(F)F)cc1` [4-(2,2,3,3,4,4,5,5,6,6,7,7-dodecafluoroheptoxy)benzamide], the EC50 was found to be 8 µM.

Take `CCOc1ccc(-c2nc(-c3ccccc3)no2)cc1OCC` [5-(3,4-diethoxyphenyl)-3-phenyl-1,2,4-oxadiazole]: the EC50 was determined as 0.147 µM.

For `Cc1ccc(-n2c(C)cc(C(=O)COC(=O)c3c(C)noc3C)c2C)cc1` [3,5-dimethyl-4-isoxazolecarboxylic acid [2-[2,5-dimethyl-1-(4-methylphenyl)-3-pyrrolyl]-2-oxoethyl] ester], the response was half-maximal at 8.31 µM (EC50).

Regarding `CC(C)c1cc(C(F)(F)F)n2nc(C(=O)Nc3ccc4c(c3)OCO4)cc2n1` [5-Isopropyl-7-trifluoromethyl-pyrazolo[1,5-a]pyrimidine-2-carboxylic acid benzo[1,3]dioxol-5-ylamide], the EC50 stood at 2.6 µM.

Regarding `Cn1c(C(=O)N2CCc3ccccc3C2)cc2oc3ccccc3c21` [2-(3,4-dihydroisoquinolin-2(1H)-ylcarbonyl)-1-methyl-1H-[1]benzofuro[3,2-b]pyrrole], the EC50 was above 30 µM.

On to `Cc1ccc(O)c(NC(=O)CCC2CCCCC2)c1` [3-cyclohexyl-N-(2-hydroxy-5-methyl-phenyl)propionamide], for which the EC50 was above 95 µM.

The compound `COC(=O)c1ccc2c(=O)n(C3CCCCC3)c(SCC#N)nc2c1` [2-(cyanomethylthio)-3-cyclohexyl-4-keto-quinazoline-7-carboxylic acid methyl ester] yielded an EC50 of 9.9 µM.

For `CCOc1ccc(-c2noc(-c3cccnc3)n2)cc1OC` [3-(4-ethoxy-3-methoxy-phenyl)-5-(3-pyridyl)-1,2,4-oxadiazole], the midpoint of the response, the EC50, lay at 1.2 µM.

Consider `O=C(Nc1ccc(N2CCOCC2)c(Cl)c1)c1cccc(F)c1` [MLS000066209], for which the EC50 was found to be 1.23 µM.

In turn, `CCCCOc1ncnc2c1[nH]c1ccc(F)cc12` [4-butoxy-8-fluoranyl-5H-pyrimido[5,4-b]indole] showed an EC50 of 2.73 µM.

In turn, `CC(C)(C)C1CCC2(CC1)C(C#N)=C(SCC(=O)Nc1ccccc1)NC(=O)C2C#N` (stereo not given) [2-[(9-tert-butyl-1,5-dicyano-2-oxidanylidene-3-azaspiro[5.5]undec-4-en-4-yl)sulfanyl]-N-phenyl-ethanamide] yielded a concentration for a half-maximal effect (EC50) of 4.92 µM.

`CCCc1cc(C(=O)Nc2sc3c(c2C#N)CCC3)no1` [MLS000116386] had a concentration for a half-maximal effect (EC50) above 95 µM.

`Cc1ccc2oc(-c3ccc(NC(=O)c4cccnc4)cc3)nc2c1` [MLS000068975] yielded an EC50 of 3.05 µM.

Take `Fc1ccc(COc2ccc(C=Nn3cnnc3)cc2)cc1` [1-[4-[(4-fluorophenyl)methoxy]phenyl]-N-(1,2,4-triazol-4-yl)methanimine]: the response was half-maximal at 8.28 µM (EC50).

Compound `COc1cccc2sc(Nc3nc(-c4ccccn4)cs3)nc12` [(4-methoxy-1,3-benzothiazol-2-yl)-[4-(2-pyridyl)thiazol-2-yl]amine] registered an EC50 of 2.75 µM.

With `O=C(c1ccc(Cl)s1)N1CCN(c2nc3ccccc3s2)CC1` [MLS000100900], the EC50 was above 30 µM.

The compound `Cc1ccc2nc(C(F)(F)F)c(C#N)c(N)c2c1` [4-amino-6-methyl-2-(trifluoromethyl)-3-quinolinecarbonitrile] gave an EC50 of 7.58 µM.

As for `COc1ccc(-c2nc(-c3ccc(Br)o3)no2)cc1OC` [3-(5-bromanylfuran-2-yl)-5-(3,4-dimethoxyphenyl)-1,2,4-oxadiazole], the EC50 amounted to 7.98 µM.

The compound `CC1=NC(=O)NC(c2ccc(Cl)cc2)C1C(=O)OCc1ccc2c(c1)OCO2` (stereo not given) [1,3-benzodioxol-5-ylmethyl 4-(4-chlorophenyl)-6-methyl-2-oxidanylidene-3,4-dihydro-1H-pyrimidine-5-carboxylate] showed an EC50 above 0.03 µM.

`N#Cc1ccc(NC(=O)Nc2ccc(Cl)cc2)cc1` [1-(4-chlorophenyl)-3-(4-cyanophenyl)urea] displayed an EC50 of 9.38 µM.

Compound `Cc1noc(C)c1S(=O)(=O)N(CC(=O)Nc1ccc2c(c1)OCO2)c1ccc(C(C)C)cc1` [MLS000117405] came in with an EC50 above 95 µM.

Take `O=C(Nc1ccc(S(=O)(=O)NCc2ccco2)cc1)c1ccc2ccccc2n1` [MLS000098663]: the EC50 is 8.51 µM.

`COCCN(C(=O)c1ccccc1)c1nnc(-c2cccnc2)s1` [MLS000032523]: the response was half-maximal at 6.68 µM (EC50).

On to `CS(=O)(=O)n1nc(OC(=O)c2cccc3ccccc23)cc1N` [(5-amino-1-methylsulfonylpyrazol-3-yl) naphthalene-1-carboxylate], for which the EC50 was 9.29 µM.

`Brc1ccc2ncnc(Nc3ccc(N4CCOCC4)cc3)c2c1` [(6-bromoquinazolin-4-yl)-(4-morpholinophenyl)amine]: the EC50 was determined as 7.6 µM.

The same assay, now with this note: inactive by the depositor's call.
With `CCN(CC)C(=O)Oc1ccc2c(=O)c(-c3ccc(OC)cc3)coc2c1` [MLS000083046], a half-maximal effect (EC50) was put at 12.9 µM.

The compound `Cc1ccc(C)c(-n2nnnc2Sc2nnnn2-c2ccccc2)c1` [1-(2,5-dimethylphenyl)-5-(1-phenyltetrazol-5-yl)sulfanyltetrazole] returned an EC50 of 12.8 µM.

As for `Cc1cc(C(=O)CN2C(=O)c3ccccc3C2=O)c(C)n1Cc1cccs1` [2-[2-[2,5-dimethyl-1-(2-thenyl)pyrrol-3-yl]-2-keto-ethyl]isoindoline-1,3-quinone], the EC50 turned out to be 17.4 µM.

In the case of `C=CCOC(=O)c1[nH]c2c(c1C)C(=O)CC(c1cc(OC)c(OC)c(OC)c1)C2` (stereo not given) [SMR000093465], the EC50 worked out at 10.7 µM.

With `Cc1onc(-c2ccccc2Cl)c1C(=O)Oc1cc(N)n(S(=O)(=O)c2ccc(F)cc2)n1` [3-(2-chlorophenyl)-5-methyl-4-isoxazolecarboxylic acid [5-amino-1-(4-fluorophenyl)sulfonyl-3-pyrazolyl] ester], the EC50 turned out to be 18.1 µM.

In turn, `CCCc1cc2c(=O)c(-c3ccccn3)coc2cc1OC` [7-methoxy-6-propyl-3-(2-pyridinyl)-1-benzopyran-4-one] displayed an EC50 of 51.8 µM.

For `Cc1cccc(-c2nc(CSCC(=O)N3CCN(c4ccccn4)CC3)c(C)o2)c1` [1-[({[5-methyl-2-(3-methylphenyl)-1,3-oxazol-4-yl]methyl}thio)acetyl]-4-pyridin-2-ylpiperazine], a half-maximal response (EC50) required 13.6 µM.

Consider `Cc1ccc2nc(NC(=O)CSc3nc4c(c(=O)n3C)SC(C)C4)sc2c1` (stereo not given) [2-[(3,6-dimethyl-4-oxidanylidene-6,7-dihydrothieno[3,2-d]pyrimidin-2-yl)sulfanyl]-N-(6-methyl-1,3-benzothiazol-2-yl)ethanamide], for which the EC50 was 13.2 µM.

As to `CCOc1nc(-c2ccccc2)ccc1-c1noc(-c2ccco2)n1` [2-Ethoxy-3-(5-furan-2-yl-[1,2,4]oxadiazol-3-yl)-6-phenyl-pyridine], the EC50 came out at 16.8 µM.

Turning to `CN1CCN(C(=O)CSc2nc(-c3cccs3)cc(-c3cccs3)c2C#N)CC1` [2-[2-(4-methylpiperazin-1-yl)-2-oxidanylidene-ethyl]sulfanyl-4,6-dithiophen-2-yl-pyridine-3-carbonitrile], the EC50 turned out to be 10.1 µM.

For the compound `C=CCn1c(SCC(=O)c2cccs2)nc2sc(CC)cc2c1=O` [3-allyl-6-ethyl-2-[[2-keto-2-(2-thienyl)ethyl]thio]thieno[2,3-d]pyrimidin-4-one], a half-maximal effect (EC50) was put at 39.9 µM.

`CC(=O)c1ccc(N2CCN(c3ccc(C(F)(F)F)cn3)CC2)cc1` [1-[4-[4-[5-(trifluoromethyl)-2-pyridinyl]-1-piperazinyl]phenyl]ethanone] displayed an EC50 of 29.4 µM.

For the compound `CCCn1c(CNc2ccc(Br)cc2)nc2ccccc21` [(4-bromophenyl)-[(1-propylbenzimidazol-2-yl)methyl]amine], the EC50 was found to be 12.1 µM.

`CN1c2ccccc2C(C)(C)C12C=Cc1cc(O)ccc1O2` (stereo not given) [1',3',3'-trimethyl-6-spiro[1-benzopyran-2,2'-indole]ol]: the EC50 was determined as 13.1 µM.

With `Cc1ccc(-n2ncc3c(N4CCCC(C)C4)ncnc32)c(C)c1` (stereo not given) [1-(2,4-dimethylphenyl)-4-(3-methylpiperidin-1-yl)-1H-pyrazolo[3,4-d]pyrimidine], the midpoint of the response, the EC50, lay at 11 µM.
